Results reported in PubChem BioAssay (NCI).
Several values for one entry are separate records, joined by “and”; a condition that tells them apart may be missing. Equal entries are not always repeated.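 Results reflect a 48-hour exposure of cells in 96-well plates to compound at five concentrations. At the GI50, growth is halved. TGI is the concentration that stops growth completely.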

How the values were obtained:
Assay in all cases: DTP human tumour cell line panel, 48 h
[1] = tested on: BT-549 breast
[2] = tested on: SF-268 CNS
[3] = tested on: TK-10 renal
[4] = tested on: EKVX NSCLC
[5] = tested on: MDA-MB-231 breast
[6] = tested on: K-562 leukemia
[7] = tested on: SN12C renal
[8] = tested on: COLO 205 colon
[9] = tested on: A549 NSCLC
[10] = tested on: SNB-75 CNS

SMILES | GI50 [1] [µM] | TGI [1] [µM] | GI50 [2] [µM] | TGI [2] | GI50 [3] [µM] | TGI [3] | GI50 [4] [µM] | TGI [4] [µM] | GI50 [5] [µM] | TGI [5] [µM] | GI50 [6] [µM] | TGI [6] | GI50 [7] [µM] | TGI [7] | GI50 [8] [µM] | TGI [8] [µM] | GI50 [9] [µM] | TGI [9] | TGI [10] | GI50 [10] [µM]
COC(=O)C1OC(O[C@H]2CCC3(C)C(CCC4(C)C3CC=C3C5CC(C)(C)CCC5(C(=O)O)CC[C@]34C)C2(C)C)C(O)C(OC2OC(CO)C(O)C(O)C2O)C1O (stereo partly specified) | 6.93 | 15 | 7.56 | 17.1 µM | 7.22 | 14.2 µM | 6.59 | 12.9 | 7.28 | 13.5 | 8.17 | 26.6 µM | 6.34 | 11.4 µM | 8.64 | 25.3 | 7.22 | 19.2 µM |  | 
CC(=O)OC1=C2CC3(C)OC(=O)CC(C)(C)C3=CC=C2C=C(C(C)C)C1=O (stereo unspecified) |  |  |  | 2.4 µM |  | 2.51 µM |  | 3.57 |  |  |  | > 100 µM |  | 2 µM |  | 2.05 |  | 3.78 µM | 1.99 µM | 
C=CCSC[C@H](NC(=O)COc1ccccc1)C(=O)NC(C(=O)OCc1ccc([N+](=O)[O-])cc1)=C(C)C |  |  |  | > 100 µM |  |  |  | > 100 |  |  |  | > 100 µM |  | > 100 µM |  | 39 |  | > 100 µM | > 100 µM | 
O=c1cc(-c2cccc(F)c2)[nH]c2cc3c(cc12)OCO3 |  | > 100 | 0.658 | 75 µM and > 58.1 µM | 4.71 | 75 µM and 44 µM |  | > 100 |  | 1.03 | 0.338 | 75 µM and > 16.4 µM | 0.411 | 75 µM and 23.3 µM |  | 0.364 | 0.498 | 21.9 µM and 40.9 µM |  | 
Cn1cc(NC(=O)c2cc(NC(=O)CCCCCCCCCCC(=O)Nc3cc(C(=O)Nc4cc(C(=O)NCCC(=N)N)n(C)c4)n(C)c3)cn2C)cc1C(=O)NCCC(=N)N |  |  |  | > 100 µM |  | 87.9 µM |  | 90.2 |  |  |  | > 100 µM |  | > 100 µM |  | > 100 |  | > 100 µM | > 100 µM | 
O=c1[nH]c2ccccc2cc1C(Cl)=C(Cl)Cl |  |  |  | > 100 µM |  | > 100 µM |  | > 100 |  |  |  | > 100 µM |  | > 100 µM |  | > 100 |  | > 100 µM | > 100 µM | 
N#CC1(c2nc3ccccc3o2)C(=O)C(=O)N(C2C3CC4CC(C3)CC2C4)C(=O)C1=O (stereo unspecified) |  |  |  | > 100 µM |  | > 100 µM |  | > 100 |  |  |  | > 100 µM |  | > 100 µM |  | > 100 |  | > 100 µM | > 100 µM | 
CC1(C)N=C(N)N=C(N)N1c1ccc(CCCCc2ccc(S(=O)(=O)F)cc2)cc1 | 7.97 | 20.9 | 0.704 | 16.9 µM | 1.14 | 17.6 µM |  |  | 3.53 | 25 | 0.472 | 28.8 µM | 1.2 | 17.7 µM | 2.28 | 19.8 | 0.623 | > 100 µM | 20.2 µM | 2.16
C#CCNC(=O)NC(CCCNC(=O)OCc1ccccc1)C(=O)OCc1ccccc1 (stereo unspecified) |  |  |  | > 100 µM |  | > 100 µM |  | > 100 |  |  |  | > 100 µM |  | > 100 µM |  | > 100 |  | > 100 µM | > 100 µM | 
COc1ccc2cc1Oc1ccc(cc1)C[C@H]1c3cc(c(OC)cc3CCN1C)Oc1c(OC)c(OC)cc3c1[C@H](C2)N(C)CC3 |  |  | 12.6 | 16.5 µM and 25.1 µM and > 100 µM | 12.7 | 15.6 µM and 25.2 µM and 53.5 µM |  |  | 2.19 |  |  | 11.1 µM and > 100 µM |  |  |  |  |  |  | 13.4 µM and 10.3 µM and > 100 µM | 2.77
Cc1ccccc1C(C#N)C(=O)C(=O)Nc1nc([N+](=O)[O-])cs1 (stereo unspecified) |  |  |  | > 100 µM |  | > 100 µM |  | > 100 |  |  |  |  |  | > 100 µM |  |  |  | > 100 µM | > 100 µM | 
